Values of other authors as cited in US7485705B2, “Water-soluble tetrazolium compounds” (Dojindo Laboratories, priority 2003, dated 2009).

SMILES | water solubility of the formazan formed upon receiving hydrogen
COc1cc(-c2ccc(-[n+]3nc(-c4ccccc4)nn3-c3ccc([N+](=O)[O-])cc3)c(OC)c2)ccc1-[n+]1nc(-c2ccccc2)nn1-c1ccc([N+](=O)[O-])cc1.[Cl-].[Cl-] [nitro-TB, 3,3′-[3,3′-dimethoxy-(1,1′-biphenyl)-4,4′-diyl]-bis-[2-(4-nitrophenyl)-5-2H tetrazolium chloride]] | insoluble in water
Cc1nc(-[n+]2nc(-c3ccccc3)nn2-c2ccccc2)sc1C.[Br-] [MTT, [3-(4,5-dimethylthiazol-2-yl)-2,5-diphenyltetrazolium bromide]] | insoluble in water
